Results: ChEMBL document CHEMBL2010763, “Discovery of a new binding mode for a series of liver X receptor agonists” (Bioorg Med Chem Lett, 2012)
pIC50: −log10 of the molar value. Active and inactive are the calls of the source. No cut-off for these calls is given here.

Experiments:
[1] = molecular target: T1, Oxysterols receptor LXR-alpha (Homo sapiens) (UniProt Q13133); test: (§1) Displacement of [3H]N-(4-(1,1,1,3,3,3-hexafluoro-2-hydroxypropan-2-yl)phenyl)-N-methylbenzenesulfonamide from LXRalpa by scintillation proximity assay
T1 sequence (whole entry): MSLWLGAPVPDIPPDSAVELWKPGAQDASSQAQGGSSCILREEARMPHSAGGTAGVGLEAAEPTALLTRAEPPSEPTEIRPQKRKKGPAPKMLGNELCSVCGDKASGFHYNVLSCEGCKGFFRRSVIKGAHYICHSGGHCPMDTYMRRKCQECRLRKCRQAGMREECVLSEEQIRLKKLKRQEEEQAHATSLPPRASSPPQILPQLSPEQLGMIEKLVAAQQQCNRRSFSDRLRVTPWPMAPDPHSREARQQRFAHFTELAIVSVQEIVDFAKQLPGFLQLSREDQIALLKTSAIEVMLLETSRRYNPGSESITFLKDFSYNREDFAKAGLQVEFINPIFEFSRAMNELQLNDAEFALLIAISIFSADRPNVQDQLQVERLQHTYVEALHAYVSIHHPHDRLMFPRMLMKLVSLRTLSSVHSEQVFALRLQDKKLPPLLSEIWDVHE

[2] = molecular target: Oxysterols receptor LXR-beta (Homo sapiens, UniProt P55055); test: Displacement of [3H]N-(4-(1,1,1,3,3,3-hexafluoro-2-hydroxypropan-2-yl)phenyl)-N-methylbenzenesulfonamide from LXRbeta by scintillation proximity assay
Chain of Oxysterols receptor LXR-beta (P55055 whole entry): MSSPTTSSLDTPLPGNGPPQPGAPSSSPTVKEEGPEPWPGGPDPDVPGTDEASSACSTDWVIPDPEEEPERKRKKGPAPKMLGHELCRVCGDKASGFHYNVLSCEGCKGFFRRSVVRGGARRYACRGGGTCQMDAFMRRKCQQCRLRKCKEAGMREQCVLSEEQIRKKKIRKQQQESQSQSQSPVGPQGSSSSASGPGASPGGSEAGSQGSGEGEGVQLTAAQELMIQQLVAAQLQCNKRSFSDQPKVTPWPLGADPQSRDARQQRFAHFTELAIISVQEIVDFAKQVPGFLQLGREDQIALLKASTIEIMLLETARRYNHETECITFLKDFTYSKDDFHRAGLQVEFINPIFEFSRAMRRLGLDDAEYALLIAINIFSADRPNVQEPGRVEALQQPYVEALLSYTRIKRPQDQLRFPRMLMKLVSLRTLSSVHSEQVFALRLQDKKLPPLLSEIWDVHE

[3] = molecular target: T2, Oxysterols receptor LXR-alpha (Homo sapiens, UniProt Q13133); test: as §1
T2 sequence (Q13133 whole entry): T1 sequence (whole entry)

## COCCn1cccc1C(=O)c1ccc(N(C)S(=O)(=O)c2ccccc2)cc1
[1]
  inhibition: inactive
[2]
  inhibition: inactive

## CCC(C)n1cccc1C(O)(c1ccc(N(C)S(=O)(=O)c2ccccc2)cc1)C(F)(F)F (centres undefined)
[1]
  inhibition: inactive
[2]
  inhibition: inactive

## CN(c1ccc(C(O)(c2cccn2CCO)C(F)(F)F)cc1)S(=O)(=O)c1ccccc1 (centres undefined)
[1]
  inhibition: inactive
[2]
  inhibition: inactive

## COCCn1cccc1C(CO)c1ccc(N(C)S(=O)(=O)c2ccccc2)cc1 (centres undefined)
[1]
  inhibition: inactive
[2]
  inhibition: inactive

## CCC(c1ccc(N(C)S(=O)(=O)c2ccccc2)cc1)c1cccn1CCOC (centres undefined)
[1]
  inhibition: inactive
[2]
  inhibition: inactive

## CCn1cccc1C(O)(c1ccc(N(C)S(=O)(=O)c2ccccc2)cc1)C(F)(F)F (centres undefined)
[1]
  inhibition: inactive
[2]
  inhibition: inactive

## COCCn1cccc1C(C)(O)c1ccc(N(C)S(=O)(=O)c2ccccc2)cc1 (centres undefined)
[1]
  inhibition: inactive
[2]
  inhibition: inactive

## CCCC(O)(c1ccc(N(C)S(=O)(=O)c2ccccc2)cc1)c1cccn1CCOC (centres undefined)
[1]
  inhibition: inactive
[2]
  inhibition: inactive

## CCCCCCn1cccc1C(O)(c1ccc(N(C)S(=O)(=O)c2ccccc2)cc1)C(F)(F)F (centres undefined)
[1]
  inhibition: inactive
[2]
  inhibition: inactive

## COC(c1ccc(N(C)S(=O)(=O)c2ccccc2)cc1)(c1cccn1Cc1ccccc1)C(F)(F)F (racemic)
[3]
  pIC50: < 5.00
[2]
  pIC50: < 5.00

## CCCCn1cccc1C(O)(c1ccc(N(C)S(=O)(=O)c2ccccc2)cc1)C(F)(F)F (centres undefined)
[1]
  inhibition: inactive
[2]
  inhibition: inactive

## COCCn1cccc1C(O)c1ccc(N(C)S(=O)(=O)c2ccccc2)cc1 (centres undefined)
[1]
  inhibition: inactive
[2]
  inhibition: inactive

## CN(c1ccc(C(O)(c2cccn2CCCO)C(F)(F)F)cc1)S(=O)(=O)c1ccccc1 (centres undefined)
[1]
  inhibition: inactive
[2]
  inhibition: inactive

## CN(c1ccc(C(O)(c2cccn2C)C(F)(F)F)cc1)S(=O)(=O)c1ccccc1 (centres undefined)
[1]
  inhibition: inactive
[2]
  inhibition: inactive

## CCCn1cccc1C(O)(c1ccc(N(C)S(=O)(=O)c2ccccc2)cc1)C(F)(F)F (centres undefined)
[1]
  inhibition: inactive
[2]
  inhibition: inactive

## COCCn1cccc1C(C)c1ccc(N(C)S(=O)(=O)c2ccccc2)cc1 (centres undefined)
[1]
  inhibition: inactive
[2]
  inhibition: inactive

## CCC(O)(c1ccc(N(C)S(=O)(=O)c2ccccc2)cc1)c1cccn1CCOC (centres undefined)
[1]
  inhibition: inactive
[2]
  inhibition: inactive

## CCOC(c1ccc(N(C)S(=O)(=O)c2ccccc2)cc1)c1cccn1CCOC (centres undefined)
[1]
  inhibition: inactive
[2]
  inhibition: inactive

## CN(c1ccc(C(O)(c2ccc[nH]2)C(F)(F)F)cc1)S(=O)(=O)c1ccccc1 (centres undefined)
[1]
  inhibition: inactive
[2]
  inhibition: inactive

## CCCC(c1ccc(N(C)S(=O)(=O)c2ccccc2)cc1)c1cccn1CCOC (centres undefined)
[1]
  inhibition: inactive
[2]
  inhibition: inactive

## COCCn1cccc1C(OC)c1ccc(N(C)S(=O)(=O)c2ccccc2)cc1 (centres undefined)
[1]
  inhibition: inactive
[2]
  inhibition: inactive

## COCCn1cccc1Cc1ccc(N(C)S(=O)(=O)c2ccccc2)cc1
[1]
  inhibition: inactive
[2]
  inhibition: inactive
